Test results: US9695118B2, “Benzamide derivative” (Chugai Seiyaku Kabushiki Kaisha, priority 2012, dated 2017)

Legend:
[1] = tested on: human endometrial cancer cell line MFE-280; experiment: Antitumor effect in cancer-bearing mice with subcutaneously transplanted MFE-280; format: in vivo; conditions: Dose 200 mg/kg, orally once daily; MFE-280 in BALB/c nude mice; 11th day after start of administration
Method: 3. Measurement of Antitumor Effect
The antitumor effect was measured for representative examples of the compounds of the present invention.
The antitumor effect was measured using cancer-bearing mice in which the human endometrial cancer cell line MFE-280 (manufactured by DSMZ) was subcutaneously transplanted to the flank of BALB/c nude mice (manufactured by Charles River Laboratories Japan, Inc.).
About 1×10^7 MFE-280 cells were subcutaneously transplanted to the flank of the purchased nude mice after a one-week quarantine period. The tumor size was measured with calipers, and the tumor volume was calculated (tumor volume=length×breadth^2/2 (mm^3)). The mice were subjected to the experiment when the tumor volume was about 200 mm^3.
The test compound was suspended in the administration solution, and 0.4 mL of the suspension was orally administered once daily. The antitumor effect was calculated as inhibition of tumor growth by comparing the tumor growth between the drug-treated group and the administration solution-administered control group on the 11th day after the start of administration.
Tumor volume growth inhibition (TGI)=(1−tumor volume growth in drug-treated group/tumor volume growth in control group)×100(%)

[2] = target: DDR1 (Homo sapiens (Human), UniProt Q08345); experiment: biochemical
Chain of DDR1 (Q08345 19-913): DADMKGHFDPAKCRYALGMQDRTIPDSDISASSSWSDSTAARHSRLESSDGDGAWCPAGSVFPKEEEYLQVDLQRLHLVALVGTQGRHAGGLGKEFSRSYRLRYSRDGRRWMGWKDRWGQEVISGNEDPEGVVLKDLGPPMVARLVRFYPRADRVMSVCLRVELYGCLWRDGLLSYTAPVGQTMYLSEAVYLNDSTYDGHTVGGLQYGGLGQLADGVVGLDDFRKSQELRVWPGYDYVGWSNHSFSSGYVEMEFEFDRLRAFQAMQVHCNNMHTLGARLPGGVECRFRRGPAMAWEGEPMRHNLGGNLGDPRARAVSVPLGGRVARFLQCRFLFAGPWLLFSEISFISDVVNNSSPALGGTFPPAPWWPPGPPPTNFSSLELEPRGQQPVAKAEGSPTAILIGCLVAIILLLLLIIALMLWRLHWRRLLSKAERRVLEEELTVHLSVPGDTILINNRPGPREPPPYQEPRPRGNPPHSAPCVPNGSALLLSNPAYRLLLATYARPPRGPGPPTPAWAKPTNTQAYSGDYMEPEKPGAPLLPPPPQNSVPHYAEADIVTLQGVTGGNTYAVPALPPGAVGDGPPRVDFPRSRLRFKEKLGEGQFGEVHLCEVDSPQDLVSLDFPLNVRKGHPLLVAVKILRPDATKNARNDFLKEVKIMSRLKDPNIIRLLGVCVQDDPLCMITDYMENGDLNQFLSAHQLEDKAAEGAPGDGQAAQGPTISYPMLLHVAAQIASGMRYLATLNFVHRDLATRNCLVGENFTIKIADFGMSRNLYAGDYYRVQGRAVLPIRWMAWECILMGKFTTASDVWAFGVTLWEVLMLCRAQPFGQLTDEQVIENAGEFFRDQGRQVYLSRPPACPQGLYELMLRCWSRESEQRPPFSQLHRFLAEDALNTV
Method: Measurement of DDR1 Binding Activity
DDR1 binding activity was measured by the LanthaScreen (Registered trademark) Eu Kinase Binding Assay (manufactured by Life Technologies Corporation). […] After reacting at room temperature for one hour, the fluorescence resonance energy transfer was measured.

Row | Structure (SMILES) | Antitumor effect TGI after 11 days passed (%) [1] | IC50 [2]
1 | CCS(=O)(=O)c1ccc(Cl)cc1CNC(=O)c1ccc(CN2CCN(C)CC2)c(C(F)(F)F)c1 [Compound B-2, N-(5-Chloro-2-ethanesulfonyl-benzyl)-4-(4-methyl-piperazin-1-ylmethyl)-3-trifluoromethyl-benzamide] | 61% | 
2 | CCS(=O)(=O)c1ccc(Cl)cc1CNC(=O)c1cc(Cl)c(CN2CCC([N+](C)(C)[O-])CC2)c(C(F)(F)F)c1 [Compound N-24] |  | 76 nM
3 | CCS(=O)(=O)c1ccc(Cl)cc1CNC(=O)c1cc(Br)cc(OC(F)(F)F)c1 [Compound A-10, 3-bromo-N-(5-chloro-2-ethanesulfonyl-benzyl)-5-trifluoromethoxy-benzamide] |  | 50 nM
4 | C#CCN(CC#C)[C@H]1CCCN(Cc2c(Cl)cc(C(=O)NCc3cc(Cl)ccc3S(=O)(=O)CC)cc2C(F)(F)F)C1 [DD-23, 4-[[(3S)-3-[Bis(prop-2-ynyl)amino]piperidin-1-yl]methyl]-3-chloro-N-[(5-chloro-2-ethylsulfonylphenyl)methyl]-5-(trifluoromethyl)benzamide] |  | 800 nM
